Here are results for seven molecules from PMC6376265, “A sequence conserved between CD5 and CD6 binds an FERM domain and exerts a restraint on T‐cell activation” (Immunology, 2018).

Read-outs that look alike come from different tables or passages of the source. Square brackets hold non-standard residues; d marks the D form. Ends that are not written are not given here. Peptide text beside a SMILES is read from it. * marks the point of attachment. Biotin = O=C1N[C@H]2[C@H](CS[C@H]2CCCCC(=O)*)N1; pY = N[C@@H](Cc1ccc(OP(=O)(O)O)cc1)C(=O)O; pS = N[C@@H](COP(=O)(O)O)C(=O)O A value given as a limit tells only on which side of the number the result lay.

One experiment addresses T1, radixin FERM domain (Mus musculus, UniProt P26043).
T1 construct: mouse cDNA encoding amino acid residues 1–310, which are 100% identical between mouse and human; GST (cleaved yes); made in house; host or cells: E. coli Rosetta (DE3) pLysS
Nature of the experiment: Surface plasmon resonance, radixin FERM domain injected over immobilized peptides. It counts as binding. To be noted: 37°; for Binding of radixin FERM domain (in words): non-phosphorylated peptides, Fig. 1a, b; for Kd: equilibrium binding. From the text: (§1) Peptides representing human sequences and biotinylated at the N terminus were obtained from Peptide Protein Research Ltd (Hampshire, UK): CD5 pSDpSDpY, PDNSpSDpSDpYDLHGAQRL; CD5 SDSDY, PDNSSDSDYDLHGAQRL, CD6 pSDpSDpY, GpSDpSDpYEHYDFSAQ; CD6 SDSDY: GSDSDYEHYDFSAQ; control peptide (CD5), HVDNEYSQPPRNS; ICAM‐2 (NP_001093259 FERM binding site (amino acids 251–275): […].16
Recombinant GST‐tagged FERM domain of radixin constructed from mouse cDNA encoding amino acid residues 1–310, which are 100% identical between mouse and human in the pET49b(+) vector was kindly provided by Toshio Hakoshima (Nara Institute of Science and Technology, Japan).16 Radixin FERM was expressed in Rosetta (DE3) pLysS competent cells (Novagen, Madison, WI) and affinity purified using Glutathione Sepharose 4B (GE Healthcare, Chicago, IL). The GST tag was cleaved with HRV 3C protease (Novagen). Cleaved radixin FERM domains were then further purified using size exclusion chromatography.
For surface plasmon resonance analysis, CD5 pSDpSDpY, CD5 SDSDY, CD6 pSDpSDpY and CD6 SDSDY and ICAM‐2 peptides were immobilized on streptavidin‐coated CM5 chips in a BIAcore 3000 machine. Radixin FERM was injected over the immobilized peptides at 37°. Background signals of radixin FERM over a streptavidin‐coated flow cell were subtracted and equilibrium binding data were fitted using a 1 : 1 Langmuir binding model using GRAPHPAD PRISM 7 software.
(In general: In SPR one partner is held on a chip, and binding of the other changes the refractive index at the surface.)

Experiment [1] deals with ERM proteins and NHE‐RF 1 and 2. Nature of the experiment: Pulldown from Jurkat T-cell lysates with immobilized peptides and mass spectrometry: five ERM and NHE-RF proteins together. The class given is binding.
Description: as §1
Pulldowns and mass spectrometry have been described elsewhere.6 Briefly, peptides CD5 pSDpSDpY, CD6 pSDpSDpY or a control peptide derived from a region around a more proximal cytoplasmic tyrosine of CD5 were immobilized on magnetic beads and used to isolate interacting proteins from Jurkat T‐cell lysates. Interacting proteins were processed, then digested on a filter, and the peptides were loaded onto the Ultimate 300 RSLCnano high‐performance liquid chromatography (Dionex, Sunnyvale, CA) ‐tandem mass spectrometry Q Exactive Orbitrap machine using a 25 cm by 75 μm inner diameter picotip analytical column (New Objective, Woburn, MA) in the central proteomics facilities at the Sir William Dunn School of Pathology, University of Oxford. Spectra analysis was conducted using the MASCOT search engine.17

In experiment [2] the target is T2, radixin FERM domain (amino acid residues 1-310) (mouse, UniProt P26043 1-310).
T2 construct: also called Recombinant monomeric radixin FERM; FERM domain of radixin; source: E. coli Rosetta (DE3) pLysS, purified (Glutathione Sepharose 4B, HRV 3C cleavage, size exclusion chromatography)
Nature of the experiment: SPR; biotinylated peptides immobilized on streptavidin-coated CM5 chips, BIAcore 3000; radixin FERM injected at 37°; streptavidin flow cell subtracted; equilibrium binding fitted with a 1:1 Langmuir model. To be noted: both partners purified.

Where [3] appears, read: SPR BIAcore 3000, biotinylated peptides on streptavidin-coated CM5 chip, 1:1 Langmuir fit, CD5 and CD6: three experiments, read-out: KD.

T1 sequence (P26043 1-310): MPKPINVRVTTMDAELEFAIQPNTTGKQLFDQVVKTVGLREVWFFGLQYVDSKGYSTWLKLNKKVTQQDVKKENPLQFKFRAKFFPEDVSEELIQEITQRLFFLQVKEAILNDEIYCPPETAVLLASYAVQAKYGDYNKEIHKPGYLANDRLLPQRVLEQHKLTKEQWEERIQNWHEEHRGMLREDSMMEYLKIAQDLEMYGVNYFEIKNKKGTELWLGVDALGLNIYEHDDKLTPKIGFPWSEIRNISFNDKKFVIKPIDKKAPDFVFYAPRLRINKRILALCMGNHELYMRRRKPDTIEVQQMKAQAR
T2 sequence (P26043 1-310): as above

PDNSSDSDYDLHGAQRL [CD5 SDSDY]: the “Binding of radixin FERM domain (in words)” value on radixin FERM domain (SPR) is “weak and did not reach saturation”.

Consider `CSCC[C@H](NC(=O)[C@H](CCCNC(=N)N)NC(=O)[C@H](CCC(N)=O)NC(=O)[C@H](CCC(N)=O)NC(=O)[C@H](CCCNC(=N)N)NC(=O)[C@H](CC(C)C)NC(=O)[C@H](Cc1c[nH]cn1)NC(=O)CCCC[C@@H]1SC[C@@H]2NC(=O)N[C@@H]21)C(=O)NCC(=O)N[C@H](C(=O)N[C@@H](Cc1ccc(O)cc1)C(=O)NCC(=O)N[C@H](C(=O)N[C@@H](CCCNC(=N)N)C(=O)N[C@@H](C)C(=O)N[C@@H](C)C(=O)N[C@@H](Cc1c[nH]c2ccccc12)C(=O)N[C@@H](CCCNC(=N)N)C(=O)N[C@@H](CCCNC(=N)N)C(=O)N[C@@H](CC(C)C)C(=O)N1CCC[C@H]1C(=O)N[C@@H](CCC(N)=O)C(=O)N[C@@H](C)C(=O)N[C@@H](Cc1ccccc1)C(=O)N[C@@H](CCCNC(=N)N)C(=O)N1CCC[C@H]1C(=O)O)C(C)C)[C@@H](C)O` [ICAM-2, reference compound] (Biotin-HLRQQRMGTYGVRAAWRRLPQAFRP-OH; N-terminus and C-terminus assumed), for which, on radixin FERM domain (setting [3]), the Kd (usually the concentration at which binding is half-saturated) is no less than 200 nM.

As for `C[C@H](NC(=O)[C@H](CO)NC(=O)[C@H](Cc1ccccc1)NC(=O)[C@H](CC(=O)O)NC(=O)[C@H](Cc1ccc(O)cc1)NC(=O)[C@H](Cc1c[nH]cn1)NC(=O)[C@H](CCC(=O)O)NC(=O)[C@H](Cc1ccc(OP(=O)(O)O)cc1)NC(=O)[C@H](CC(=O)O)NC(=O)[C@H](COP(=O)(O)O)NC(=O)[C@H](CC(=O)O)NC(=O)[C@H](COP(=O)(O)O)NC(=O)CN)C(=O)N[C@@H](CCC(N)=O)C(=O)O` [CD6 pSDpSDpY] (H-G[pS]D[pS]D[pY]EHYDFSAQ-OH), the dissociation constant (Kd) on radixin FERM domain (setting [3]) worked out at 500 nM.

On to `CC(C)C[C@H](NC(=O)[C@H](CCCNC(=N)N)NC(=O)[C@H](CCC(N)=O)NC(=O)[C@H](C)NC(=O)CNC(=O)[C@H](Cc1c[nH]cn1)NC(=O)[C@H](CC(C)C)NC(=O)[C@H](CC(=O)O)NC(=O)[C@H](Cc1ccc(OP(=O)(O)O)cc1)NC(=O)[C@H](CC(=O)O)NC(=O)[C@H](COP(=O)(O)O)NC(=O)[C@H](CC(=O)O)NC(=O)[C@H](COP(=O)(O)O)NC(=O)[C@H](CO)NC(=O)[C@H](CC(N)=O)NC(=O)[C@H](CC(=O)O)NC(=O)[C@@H]1CCCN1)C(=O)O` [CD5 pSDpSDpY] (H-PDNS[pS]D[pS]D[pY]DLHGAQRL-OH), for which the Kd on radixin FERM domain (setting [3]) is 1000 to 2000 nM; on radixin FERM domain (SPR, Fig. 1 panel c, peptides compared with ICAM-2, read-out: KD (Fig. 1c)) it was 1000 nM.

As to GSDSDYEHYDFSAQ [CD6 SDSDY], the “Binding of radixin FERM domain (in words)” value at radixin FERM domain (SPR) is “weak and did not reach saturation”.

As for “HVDNEYSQPPRNS [control peptide, control peptide derived from a region around a more proximal cytoplasmic tyrosine of CD5]”, the “Isolation of the five proteins (in words)” value in experiment [1] is given as “not identified”.

B1: CD6 pSDpSDpY peptide (peptide)
peptide: Biotin-G[pS]D[pS]D[pY]EHYDFSAQ
notes: also called phosphorylated CD6 SDSDY peptide; source: synthetic peptide; bought: Peptide Protein Research Ltd
In the case of B1, the Kd in experiment [2] lay within 500 to 2000 nM.
